For two compounds, activation, inhibition and IC50 results are on record in article PMC8276018, “The Prostacyclin Analogue, Treprostinil, Used in the Treatment of Pulmonary Arterial Hypertension, is a Potent Antagonist of TREK-1 and TREK-2 Potassium Channels” (Frontiers in Pharmacology, 2021).

Common to all, as to format: cell-based
Test [1] has as its target T1, TREK-2 (Homo sapiens, UniProt P57789).
T1 construct: gene KCNK10; NP_612190.1, wild type, expressed in tsA201 cells
T1 sequence (P57789 1-538): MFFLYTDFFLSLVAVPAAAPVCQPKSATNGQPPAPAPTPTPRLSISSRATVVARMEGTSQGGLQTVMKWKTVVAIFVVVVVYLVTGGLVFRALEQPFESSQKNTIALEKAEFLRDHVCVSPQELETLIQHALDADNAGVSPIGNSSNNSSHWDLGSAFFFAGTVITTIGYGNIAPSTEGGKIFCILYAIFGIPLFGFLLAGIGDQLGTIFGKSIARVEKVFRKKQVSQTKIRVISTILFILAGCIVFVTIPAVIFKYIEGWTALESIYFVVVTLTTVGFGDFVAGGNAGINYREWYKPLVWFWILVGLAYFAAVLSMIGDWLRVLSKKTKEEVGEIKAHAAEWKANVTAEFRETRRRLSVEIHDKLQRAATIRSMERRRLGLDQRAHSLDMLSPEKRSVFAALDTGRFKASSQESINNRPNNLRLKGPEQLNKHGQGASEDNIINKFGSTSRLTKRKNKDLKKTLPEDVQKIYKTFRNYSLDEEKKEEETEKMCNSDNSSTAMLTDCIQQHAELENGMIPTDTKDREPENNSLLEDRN
The test is described as follows: whole-cell patch-clamp, current activation at […]. The note with it: read-out: % current enhancement at 1 μM.

The target of test [2] is T2, TREK-1 (Homo sapiens, UniProt O95069).
T2 construct: gene KCNK2; NP_055032.1, wild type, expressed in tsA201 cells
T2 sequence (O95069 1-426): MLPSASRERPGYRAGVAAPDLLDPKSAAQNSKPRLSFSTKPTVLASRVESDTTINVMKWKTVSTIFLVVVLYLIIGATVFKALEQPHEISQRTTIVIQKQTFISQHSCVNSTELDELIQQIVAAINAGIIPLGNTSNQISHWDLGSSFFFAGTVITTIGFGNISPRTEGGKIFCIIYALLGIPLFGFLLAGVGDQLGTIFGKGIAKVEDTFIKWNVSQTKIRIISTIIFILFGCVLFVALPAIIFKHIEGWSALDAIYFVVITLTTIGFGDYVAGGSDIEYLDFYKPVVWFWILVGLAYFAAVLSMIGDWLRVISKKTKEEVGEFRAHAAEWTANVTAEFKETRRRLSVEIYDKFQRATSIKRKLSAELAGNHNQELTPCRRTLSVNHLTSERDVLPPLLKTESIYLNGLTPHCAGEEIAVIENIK
The test is described as follows: whole-cell patch-clamp, current activation at […]. The note with it: read-out: % current enhancement at 1 μM.

In test [3] the target is T3, TREK-2 (Homo sapiens, UniProt P57789, L315A).
T3 construct: gene KCNK10; homodimeric mutant channel in tsA201 cells
T3 sequence (P57789 1-538 L315A): T1 sequence (P57789 1-538) with L315A
Description: whole-cell patch-clamp, […]. (In general: Patch clamp records ionic current or voltage across a cell membrane.)

Test [4] concerns the target T1, TREK-2. The test is described as follows: whole-cell patch-clamp, concentration-response.
For test [5], the target named is T4, TREK-1 (Homo sapiens, UniProt O95069, L304A).
T4 construct: gene KCNK2; homodimeric mutant channel in tsA201 cells
T4 sequence (O95069 1-411 isoform O95069-2 L289A): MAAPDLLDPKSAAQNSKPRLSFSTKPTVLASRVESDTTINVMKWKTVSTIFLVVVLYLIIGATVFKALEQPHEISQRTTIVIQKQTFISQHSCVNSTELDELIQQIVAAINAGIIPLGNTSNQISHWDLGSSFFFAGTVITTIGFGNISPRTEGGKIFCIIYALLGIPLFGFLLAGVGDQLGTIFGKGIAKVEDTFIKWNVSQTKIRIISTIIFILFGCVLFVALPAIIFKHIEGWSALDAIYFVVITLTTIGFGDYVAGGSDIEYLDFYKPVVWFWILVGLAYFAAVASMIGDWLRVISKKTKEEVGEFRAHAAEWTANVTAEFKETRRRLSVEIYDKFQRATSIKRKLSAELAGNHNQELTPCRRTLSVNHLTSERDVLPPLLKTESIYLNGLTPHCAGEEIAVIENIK
Description: whole-cell patch-clamp, […].

Test [6] addresses T5, TREK-1 (Homo sapiens, UniProt O95069, L117A).
T5 construct: gene KCNK2; homodimeric mutant channel in tsA201 cells
T5 sequence (O95069 16-426 L117A): T4 sequence (O95069 1-411 isoform O95069-2 L289A) with M1V, L102A, A289L
Description: whole-cell patch-clamp, […].

Test [7] addresses T6, TREK-1 (Homo sapiens, UniProt O95069, I95A).
T6 construct: gene KCNK2; homodimeric mutant channel in tsA201 cells
T6 sequence (O95069 1-411 isoform O95069-2 I80A): T4 sequence (O95069 1-411 isoform O95069-2 L289A) with I80A, A289L
Description: whole-cell patch-clamp, […].

Test [8] concerns the target T7, TREK-1 (Homo sapiens, UniProt O95069, Y299A).
T7 construct: gene KCNK2; homodimeric mutant channel in tsA201 cells
T7 sequence (O95069 1-411 isoform O95069-2 Y284A): T4 sequence (O95069 1-411 isoform O95069-2 L289A) with Y284A, A289L
Description: whole-cell patch-clamp, […].

Test [9] deals with T8, TREK-1 (Homo sapiens, UniProt O95069, Q91A).
T8 construct: gene KCNK2; homodimeric mutant channel in tsA201 cells
T8 sequence (O95069 1-411 isoform O95069-2 Q76A): T4 sequence (O95069 1-411 isoform O95069-2 L289A) with Q76A, A289L
The test is described as follows: whole-cell patch-clamp, […].

Test [10] has as its target T2, TREK-1. The test is described as follows: whole-cell patch-clamp, concentration-response.

Molecules are shown by their SMILES. Changes are numbered by the printed parent chain.

On to `c1ccc(-c2nn[nH]n2)c(Nc2cccc3c2CCCC3)c1` [BL-1249], for which the activation at 1 µM in test [1] stood at 192%; in test [2], 144%.

As to `CCCCC[C@H](O)CC[C@@H]1[C@H]2Cc3cccc(OCC(=O)O)c3C[C@H]2C[C@H]1O` [treprostinil], the inhibition – broadly, the change of the read-out against control, counted positive when it falls – at 1 µM in [3] is 74%; in test [5], 72%; in test [6], 88%; in [7], 78.2%; in test [8], 58%; in test [9], 89%. Moreover, the IC50 (commonly the concentration needed to halve the response being measured) came to 40 nM in test [4] and 30 nM in test [10].
